# Paper PMC8778264 (Nanomaterials, 2022)
# Assays:
# Type in all cases: cell-based
# CRL-1739 cells [1] = assay: In vitro cytotoxicity (MTT assay); settings: 48 h treatment
# Procedure: The cell line was cultured in DMEM supported with 10% fetal bovine serum, 0.5 mg/mL glutamine/penicillin streptomycin at 37 °C and 5% CO2. […] Ninety-six well flat-bottom plates and […] DMEM were used for the seeding procedure. […] Then, 100 μL of MTT solution (5 mg/mL) was put into each well and incubated at 37 °C. The culture medium was removed. Then, 200 μL of dimethysulfoxide was added to obtain the dissolution of the MTT formazan crystals. The absorbance was read at 570 nm using a microplate reader.
# CRL-1739 cells [2] = assay: Cellular uptake and cell apoptosis analysis by flow cytometry (Annexin V-FITC / propidium iodide); settings: 0.05 and 2 mg/mL, 24 h
# Procedure: (§1) The control group comprised untreated cells and fresh culture medium without test compounds. CRL-1739 cells were seeded to a 5 × 10^4 cell density in 24-well plates. […] After the administration of formulations, cells were washed with PBS three times. The cells were trypsinized and suspended in fresh PBS with 10% fetal bovine serum.
# The suspended formulations were incubated with 5 μL of Annexin V-FITC and 5 μL of propidium iodide for 15 min at room temperature in the dark. The cell suspensions were analyzed by using Guava easy Cyte in terms of cellular uptake.
# CRL-1739 cells [3] = assay: Fluorescence microscopy (Hoechst 33342)
# Procedure: as §1
# After treatment with the formulations, CRL-1739 cells were fixed and stained with Hoechst 33342 (blue). The cellular uptake of formulations was performed with a Nikon eclipse fluorescence microscope (Nikon, Japan) at a magnification of 1000×. The stained cell nuclei were evaluated.
smiles,measurement,setting,value
"Cc1ccc(NC(=O)c2ccc(CN3CCN(C)CC3)cc2)cc1Nc1nccc(-c2cccnc2)n1 [IMT, Imatinib]",cell viability,CRL-1739 cells [1],70.5%
same,"cellular uptake (fluorescence intensity, flow cytometry)",CRL-1739 cells [2],lower fluorescence intensity than cells administered with F16 and F16-IMT
same,IMT location and distribution inside cells (fluorescence),CRL-1739 cells [3],low fluorescence when compared to F16 and F16-IMT
